Experimental data: patent publication US20150344540A1, “NOVEL GLP-1 RECEPTOR AGONISTS WITH CHOLESTEROL EFFLUX ACTIVITY” (NOVO NORDISK A/S, priority 2012, published 2015)
Where a SMILES comes first, the peptide text is derived from it. Where no end group is shown, it is not given here. [ ]: non-standard residue; d: D form. Aib = CC(C)(N)C(=O)O

Test system: Mouse monocyte/macrophage cell line, RAW 264.7
Experiment: Cholesterol efflux assay (3H-cholesterol, macrophage cell line)
Format: cell-based
Conditions: RAW 264.7, 4 hrs incubation, 0.1% human serum albumin; for 4 h Cholesterol Efflux Emax: ABCA1-mediated efflux; for EC50: read-out: 4 h Cholesterol Efflux EC50, ABCA1-mediated efflux (CPT-cAMP induced minus non-induced)

Row | Molecule | 4 h Cholesterol Efflux Emax [%] | EC50 [nM]
1 | CC[C@H](C)[C@H](NC(=O)[C@H](Cc1ccccc1)NC(=O)[C@H](CCC(=O)O)NC(=O)[C@H](CCCNC(=N)N)NC(=O)[C@@H](NC(=O)[C@H](C)NC(=O)[C@H](CCC(=O)O)NC(=O)[C@H](CCC(=O)O)NC(=O)[C@H](CCC(=O)O)NC(=O)[C@H](CCSC)NC(=O)[C@H](CCC(N)=O)NC(=O)[C@H](CCCCN)NC(=O)[C@H](CO)NC(=O)[C@H](CC(C)C)NC(=O)[C@H](CC(=O)O)NC(=O)[C@H](CO)NC(=O)[C@@H](NC(=O)[C@H](Cc1ccccc1)NC(=O)[C@@H](NC(=O)CNC(=O)[C@H](CCC(=O)O)NC(=O)C(C)(C)NC(=O)[C@@H](N)Cc1c[nH]cn1)[C@@H](C)O)[C@@H](C)O)C(C)C)C(=O)N[C@@H](CCC(=O)O)C(=O)N[C@@H](Cc1c[nH]c2ccccc12)C(=O)N[C@@H](CC(C)C)C(=O)N[C@@H](CCCCN)C(=O)N[C@@H](CC(N)=O)C(=O)N[C@@H](CCCCN)C(=O)NC(C)(C)C(=O)N[C@@H](CC(C)C)C(=O)N[C@@H](CCC(=O)O)C(=O)N[C@@H](Cc1ccccc1)C(=O)N[C@@H](CC(C)C)C(=O)N[C@@H](CCC(=O)O)C(=O)N[C@@H](CC(C)C)C(=O)N[C@@H](CC(C)C)C(=O)O [Compound 23, [Aib2,Glu21,Lys29,Aib30,Leu31,Glu32,Phe33,Leu34,Glu35,Leu36,Leu371-Exendin-4-(1-37)-peptide] | 99 | 730
2 | CC[C@H](C)[C@H](NC(=O)[C@H](Cc1ccccc1)NC(=O)[C@H](CCC(=O)O)NC(=O)[C@H](CCCCN)NC(=O)[C@@H](NC(=O)[C@H](C)NC(=O)[C@H](CCC(=O)O)NC(=O)CNC(=O)[C@H](CCC(=O)O)NC(=O)[C@H](CC(C)C)NC(=O)[C@H](Cc1ccc(O)cc1)NC(=O)[C@H](CO)NC(=O)[C@H](CO)NC(=O)[C@@H](NC(=O)[C@H](CC(=O)O)NC(=O)[C@H](CO)NC(=O)[C@@H](NC(=O)[C@H](Cc1ccccc1)NC(=O)[C@@H](NC(=O)CNC(=O)[C@H](CCC(=O)O)NC(=O)C(C)(C)NC(=O)[C@@H](N)Cc1c[nH]cn1)[C@@H](C)O)[C@@H](C)O)C(C)C)C(C)C)C(=O)N[C@@H](C)C(=O)N[C@@H](Cc1c[nH]c2ccccc12)C(=O)N[C@@H](CC(C)C)C(=O)N[C@H](C(=O)N[C@@H](CCC(=O)O)C(=O)N[C@@H](CCCCN)C(=O)N[C@@H](Cc1ccccc1)C(=O)N[C@@H](CCCCN)C(=O)N[C@@H](CCC(=O)O)C(=O)N[C@@H](Cc1ccccc1)C(=O)N[C@@H](Cc1ccccc1)C(N)=O)C(C)C [Compound 93, [Aib8,Glu23,Val25,Glu34,Lys35,Phe36,Lys37]-GLP-1-(7-37)-peptidyl-Glu-Phe-Phe amide] (H-H[Aib]EGTFTSDVSSYLEGEAVKEFIAWLVEKFKEFF-NH2) | 113 | 
3 | CC[C@H](C)[C@H](NC(=O)[C@H](Cc1ccccc1)NC(=O)[C@H](CCC(=O)O)NC(=O)[C@H](CCCCN)NC(=O)[C@@H](NC(=O)[C@H](C)NC(=O)[C@H](CCC(=O)O)NC(=O)CNC(=O)[C@H](CCC(=O)O)NC(=O)[C@H](CC(C)C)NC(=O)[C@H](Cc1ccc(O)cc1)NC(=O)[C@H](CO)NC(=O)[C@H](CO)NC(=O)[C@@H](NC(=O)[C@H](CC(=O)O)NC(=O)[C@H](CO)NC(=O)[C@@H](NC(=O)[C@H](Cc1ccccc1)NC(=O)[C@@H](NC(=O)CNC(=O)[C@H](CCC(=O)O)NC(=O)C(C)(C)NC(=O)[C@@H](N)Cc1c[nH]cn1)[C@@H](C)O)[C@@H](C)O)C(C)C)C(C)C)C(=O)N[C@@H](C)C(=O)N[C@@H](Cc1c[nH]c2ccccc12)C(=O)N[C@@H](CC(C)C)C(=O)N[C@H](C(=O)N[C@@H](CCC(=O)O)C(=O)N[C@@H](CCCCN)C(=O)N[C@H](C(=O)N[C@@H](CCCCN)C(=O)N[C@@H](CC(=O)O)C(=O)N[C@@H](Cc1ccccc1)C(=O)N[C@@H](CC(C)C)C(N)=O)C(C)C)C(C)C [Compound 114, [Aib8,Glu23,Val25,Glu34,Lys35,Val36,Lys37]-GLP-1-(7-37)-peptidyl-Asp-Phe-Leu amide] (H-H[Aib]EGTFTSDVSSYLEGEAVKEFIAWLVEKVKDFL-NH2) | 103 | 
4 | CC[C@H](C)[C@H](NC(=O)[C@H](Cc1ccccc1)NC(=O)[C@H](CCC(N)=O)NC(=O)[C@H](CCCCN)NC(=O)[C@@H](NC(=O)[C@H](C)NC(=O)[C@H](CCC(N)=O)NC(=O)CNC(=O)[C@H](CCC(=O)O)NC(=O)[C@H](CC(C)C)NC(=O)[C@H](Cc1ccc(O)cc1)NC(=O)[C@H](CO)NC(=O)[C@H](CO)NC(=O)[C@@H](NC(=O)[C@H](CC(=O)O)NC(=O)[C@H](CO)NC(=O)[C@@H](NC(=O)[C@H](Cc1ccccc1)NC(=O)[C@@H](NC(=O)CNC(=O)[C@H](CCC(=O)O)NC(=O)C(C)(C)NC(=O)[C@@H](N)Cc1c[nH]cn1)[C@@H](C)O)[C@@H](C)O)C(C)C)C(C)C)C(=O)N[C@@H](C)C(=O)N[C@@H](Cc1c[nH]c2ccccc12)C(=O)N[C@@H](CC(C)C)C(=O)N[C@H](C(=O)N[C@@H](CCC(=O)O)C(=O)N[C@@H](CCCCN)C(=O)NC(C)(C)C(=O)N[C@@H](C)C(=O)N[C@@H](CCC(=O)O)C(=O)N[C@@H](Cc1ccccc1)C(=O)N[C@@H](CC(C)C)C(N)=O)C(C)C [Compound 72] (H-H[Aib]EGTFTSDVSSYLEGQAVKQFIAWLVEK[Aib]AEFL-NH2) | 78 | 
5 | CC[C@H](C)[C@H](NC(=O)[C@H](Cc1ccccc1)NC(=O)[C@H](CCC(=O)O)NC(=O)[C@H](CCCCN)NC(=O)[C@@H](NC(=O)[C@H](C)NC(=O)[C@H](CCC(=O)O)NC(=O)CNC(=O)[C@H](CCC(=O)O)NC(=O)[C@H](CC(C)C)NC(=O)[C@H](Cc1ccc(O)cc1)NC(=O)[C@H](CO)NC(=O)[C@H](CO)NC(=O)[C@@H](NC(=O)[C@H](CC(=O)O)NC(=O)[C@H](CO)NC(=O)[C@@H](NC(=O)[C@H](Cc1ccccc1)NC(=O)[C@@H](NC(=O)CNC(=O)[C@H](CCC(=O)O)NC(=O)C(C)(C)NC(=O)[C@@H](N)Cc1c[nH]cn1)[C@@H](C)O)[C@@H](C)O)C(C)C)C(C)C)C(=O)N[C@@H](C)C(=O)N[C@@H](Cc1c[nH]c2ccccc12)C(=O)N[C@@H](CC(C)C)C(=O)N[C@H](C(=O)N[C@@H](CCC(=O)O)C(=O)N[C@@H](CCCCN)C(=O)NC(C)(C)C(=O)N[C@@H](CCCCN)C(=O)N[C@@H](CCC(=O)O)C(=O)N[C@@H](Cc1ccccc1)C(=O)N[C@@H](Cc1c[nH]cn1)C(N)=O)C(C)C [Compound 22, [Aib8,Glu23,Val25,Glu34,Lys35,Aib36,Lys37]-GLP-1-(7-37)-peptidyl-Glu-Phe-His amide] (H-H[Aib]EGTFTSDVSSYLEGEAVKEFIAWLVEK[Aib]KEFH-NH2) | 106 | 
6 | CC[C@H](C)[C@H](NC(=O)[C@H](Cc1ccccc1)NC(=O)[C@H](CCC(=O)O)NC(=O)[C@H](CCCCN)NC(=O)[C@@H](NC(=O)[C@H](C)NC(=O)[C@H](CCC(=O)O)NC(=O)CNC(=O)[C@H](CCC(=O)O)NC(=O)[C@H](CC(C)C)NC(=O)[C@H](Cc1ccc(O)cc1)NC(=O)[C@H](CO)NC(=O)[C@H](CO)NC(=O)[C@@H](NC(=O)[C@H](CC(=O)O)NC(=O)[C@H](CO)NC(=O)[C@@H](NC(=O)[C@H](Cc1ccccc1)NC(=O)[C@@H](NC(=O)CNC(=O)[C@H](CCC(=O)O)NC(=O)C(C)(C)NC(=O)[C@@H](N)Cc1c[nH]cn1)[C@@H](C)O)[C@@H](C)O)C(C)C)C(C)C)C(=O)N[C@@H](C)C(=O)N[C@@H](Cc1c[nH]c2ccccc12)C(=O)N[C@@H](CC(C)C)C(=O)N[C@@H](CC(C)C)C(=O)N[C@@H](CCC(=O)O)C(=O)N[C@@H](CCCCN)C(=O)NC(C)(C)C(=O)N[C@@H](CCCCN)C(=O)N[C@@H](CCC(=O)O)C(=O)N[C@@H](Cc1c[nH]c2ccccc12)C(=O)N[C@@H](CC(C)C)C(N)=O [Compound 89, [Aib8,Glu23,Val25,Leu33,Glu34,Lys35,Aib36,Lys37]-GLP-1-(7-37)-peptidyl-Glu-Trp-Leu amide] (H-H[Aib]EGTFTSDVSSYLEGEAVKEFIAWLLEK[Aib]KEWL-NH2) | 102 | 
7 | CC[C@H](C)[C@H](NC(=O)[C@H](Cc1ccccc1)NC(=O)[C@H](CC(=O)O)NC(=O)[C@H](CCCCN)NC(=O)[C@@H](NC(=O)[C@H](C)NC(=O)[C@H](CC(=O)O)NC(=O)CNC(=O)[C@H](CCC(=O)O)NC(=O)[C@H](CC(C)C)NC(=O)[C@H](Cc1ccc(O)cc1)NC(=O)[C@H](CO)NC(=O)[C@H](CO)NC(=O)[C@@H](NC(=O)[C@H](CC(=O)O)NC(=O)[C@H](CO)NC(=O)[C@@H](NC(=O)[C@H](Cc1ccccc1)NC(=O)[C@@H](NC(=O)CNC(=O)[C@H](CCC(=O)O)NC(=O)C(C)(C)NC(=O)[C@@H](N)Cc1c[nH]cn1)[C@@H](C)O)[C@@H](C)O)C(C)C)C(C)C)C(=O)N[C@@H](C)C(=O)N[C@@H](Cc1c[nH]c2ccccc12)C(=O)N[C@@H](CC(C)C)C(=O)N[C@H](C(=O)N[C@@H](CCC(=O)O)C(=O)N[C@@H](CCCCN)C(=O)NC(C)(C)C(=O)N[C@@H](CCCCN)C(=O)N[C@@H](CCC(=O)O)C(=O)N[C@@H](Cc1ccccc1)C(=O)N[C@@H](CC(C)C)C(N)=O)C(C)C [Compound 18, [Aib8,Asp23,Val25,Asp27,Glu34,Lys35,Aib36,Lys37]-GLP-1-(7-37)-peptidyl-Glu-Phe-Leu amide] (H-H[Aib]EGTFTSDVSSYLEGDAVKDFIAWLVEK[Aib]KEFL-NH2) | 89 | 
8 | HAQGTFTSDYSKYLDSKAAREFVQWLLEKVKEFL-NH2 [Compound 68] |  | 270
9 | CC[C@H](C)[C@H](NC(=O)[C@H](Cc1ccccc1)NC(=O)[C@H](CCC(=O)O)NC(=O)[C@H](CCCCN)NC(=O)[C@@H](NC(=O)[C@H](C)NC(=O)[C@H](CCC(=O)O)NC(=O)[C@@H]1CCCN1C(=O)[C@H](CCC(=O)O)NC(=O)[C@H](CC(C)C)NC(=O)[C@H](Cc1ccc(O)cc1)NC(=O)[C@H](CO)NC(=O)[C@H](CO)NC(=O)[C@@H](NC(=O)[C@H](CC(=O)O)NC(=O)[C@H](CO)NC(=O)[C@@H](NC(=O)[C@H](Cc1ccccc1)NC(=O)[C@@H](NC(=O)CNC(=O)[C@H](CCC(=O)O)NC(=O)C(C)(C)NC(=O)[C@@H](N)Cc1c[nH]cn1)[C@@H](C)O)[C@@H](C)O)C(C)C)C(C)C)C(=O)N[C@@H](C)C(=O)N[C@@H](Cc1c[nH]c2ccccc12)C(=O)N[C@@H](CC(C)C)C(=O)N[C@H](C(=O)N[C@@H](CCC(=O)O)C(=O)N[C@@H](CCCCN)C(=O)NC(C)(C)C(=O)N[C@@H](CCCCN)C(=O)N[C@@H](CCC(=O)O)C(=O)N[C@@H](Cc1ccccc1)C(=O)N[C@@H](CC(C)C)C(N)=O)C(C)C [Compound 101, [Aib8,Pro22,Glu23,Val25,Glu34,Lys35,Aib36,Lys37]-GLP-1-(7-37)-peptidyl-Glu-Phe-Leu amide] (H-H[Aib]EGTFTSDVSSYLEPEAVKEFIAWLVEK[Aib]KEFL-NH2; N-terminus assumed) | 92 | 280
